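Here, GI50 denotes the concentration required for 50% inhibition of growth. The concentration for full growth arrest is given as TGI.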
Assays:
Assay in all cases: NCI tumour cell line growth inhibition, 384-well format
HL-60(TB) leukemia = system: HL-60(TB) leukemia
UACC-257 melanoma = system: UACC-257 melanoma
CAKI-1 renal = system: CAKI-1 renal
HCT-15 colon = system: HCT-15 colon
A498 renal = system: A498 renal
MALME-3M melanoma = system: MALME-3M melanoma
HOP-92 NSCLC = system: HOP-92 NSCLC
HCC-2998 colon = system: HCC-2998 colon
SR leukemia = system: SR leukemia
MDA-MB-468 breast = system: MDA-MB-468 breast
SK-MEL-5 melanoma = system: SK-MEL-5 melanoma
HT29 colon = system: HT29 colon
SNB-19 CNS = system: SNB-19 CNS
HCT-116 colon = system: HCT-116 colon
KM12 colon = system: KM12 colon
M14 melanoma = system: M14 melanoma
NCI-H460 NSCLC = system: NCI-H460 NSCLC
NCI-H522 lung = system: NCI-H522 lung
MCF7 breast = system: MCF7 breast
UACC-62 melanoma = system: UACC-62 melanoma
SW-620 colon = system: SW-620 colon
NCI/ADR-RES ovarian = system: NCI/ADR-RES ovarian
RXF 393 renal = system: RXF 393 renal
DU-145 prostate = system: DU-145 prostate
K-562 leukemia = system: K-562 leukemia
MOLT-4 leukemia = system: MOLT-4 leukemia
MDA-MB-435 melanoma = system: MDA-MB-435 melanoma
SF-295 CNS = system: SF-295 CNS

In the case of `CN[C@@H](C)C(=O)N[C@H]1CN(S(=O)(=O)c2cccc(S(=O)(=O)N3CC[C@H]4CC[C@@H](C(=O)NC(c5ccccc5)c5ccccc5)N4C(=O)[C@@H](NC(=O)[C@H](C)NC)C3)c2)CC[C@H]2CC[C@@H](C(=O)NC(c3ccccc3)c3ccccc3)N2C1=O`, the TGI (HL-60(TB) leukemia) is reported as < 0.01 µM, the GI50 (UACC-257 melanoma) is reported as 11.7 µM and the TGI (UACC-257 melanoma) is reported as 24.4 µM. The GI50 (CAKI-1 renal) was > 100 µM, the TGI (CAKI-1 renal) was > 100 µM and the GI50 (HCT-15 colon) was > 100 µM. For the same compound, the TGI (HCT-15 colon) was > 100 µM, the GI50 (A498 renal) was 35.8 µM and the TGI (A498 renal) was > 100 µM. The GI50 (MALME-3M melanoma) was < 0.01 µM, the TGI (MALME-3M melanoma) was 0.0336 µM and the GI50 (HOP-92 NSCLC) was 0.242 µM. For the same compound, the TGI (HOP-92 NSCLC) was 2.69 µM, the GI50 (HCC-2998 colon) was 11.7 µM and the TGI (HCC-2998 colon) was 24 µM. The GI50 (SR leukemia) was 0.0253 µM, the TGI (SR leukemia) was 2.82 µM and the GI50 (MDA-MB-468 breast) was < 0.01 µM. For the same compound, the TGI (MDA-MB-468 breast) was 0.0196 µM, the GI50 (SK-MEL-5 melanoma) was 0.11 µM and the TGI (SK-MEL-5 melanoma) was 0.422 µM. It also gave a GI50 (HT29 colon) of 16 µM, a TGI (HT29 colon) of 35.7 µM and a GI50 (SNB-19 CNS) of 16.6 µM. The TGI (SNB-19 CNS) was 30.2 µM, the GI50 (HCT-116 colon) was 23.7 µM and the TGI (HCT-116 colon) was 87.5 µM. For the same compound, the GI50 (KM12 colon) was 12.4 µM, the TGI (KM12 colon) was 24.9 µM and the GI50 (M14 melanoma) was 20.3 µM. It also gave a TGI (M14 melanoma) of 44.9 µM, a GI50 (NCI-H460 NSCLC) of 11.2 µM and a TGI (NCI-H460 NSCLC) of 25.5 µM. The GI50 (NCI-H522 lung) was 0.0634 µM, the TGI (NCI-H522 lung) was 2.93 µM and the GI50 (MCF7 breast) was 1.84 µM. The TGI (MCF7 breast) was 5.7 µM, the GI50 (UACC-62 melanoma) was 13.9 µM and the TGI (UACC-62 melanoma) was 27.5 µM. For the same compound, the GI50 (SW-620 colon) was 37.7 µM, the TGI (SW-620 colon) was > 100 µM and the GI50 (NCI/ADR-RES ovarian) was 46.1 µM. The TGI (NCI/ADR-RES ovarian) was > 100 µM, the GI50 (RXF 393 renal) was < 0.01 µM and the TGI (RXF 393 renal) was 0.073 µM. The GI50 (DU-145 prostate) was 2.3 µM, the TGI (DU-145 prostate) was 16.7 µM and the GI50 (K-562 leukemia) was 4.42 µM. It also gave a TGI (K-562 leukemia) of 22.4 µM, a GI50 (MOLT-4 leukemia) of 6.56 µM and a TGI (MOLT-4 leukemia) of 18.6 µM. For the same compound, the GI50 (MDA-MB-435 melanoma) was 0.0478 µM, the TGI (MDA-MB-435 melanoma) was 16.8 µM and the GI50 (SF-295 CNS) was 11 µM. It also gave a TGI (SF-295 CNS) of 23.6 µM.

From PubChem BioAssay (NCI)
